These results are taken from patent publication US8778929B2, “Substituted heteroaryl inhibitors of B-RAF” (Boehringer Ingelheim International GmbH, priority 2008, dated 2014).

Sequence of B-Raf (V600E)-kinase (P15056 whole entry V600E): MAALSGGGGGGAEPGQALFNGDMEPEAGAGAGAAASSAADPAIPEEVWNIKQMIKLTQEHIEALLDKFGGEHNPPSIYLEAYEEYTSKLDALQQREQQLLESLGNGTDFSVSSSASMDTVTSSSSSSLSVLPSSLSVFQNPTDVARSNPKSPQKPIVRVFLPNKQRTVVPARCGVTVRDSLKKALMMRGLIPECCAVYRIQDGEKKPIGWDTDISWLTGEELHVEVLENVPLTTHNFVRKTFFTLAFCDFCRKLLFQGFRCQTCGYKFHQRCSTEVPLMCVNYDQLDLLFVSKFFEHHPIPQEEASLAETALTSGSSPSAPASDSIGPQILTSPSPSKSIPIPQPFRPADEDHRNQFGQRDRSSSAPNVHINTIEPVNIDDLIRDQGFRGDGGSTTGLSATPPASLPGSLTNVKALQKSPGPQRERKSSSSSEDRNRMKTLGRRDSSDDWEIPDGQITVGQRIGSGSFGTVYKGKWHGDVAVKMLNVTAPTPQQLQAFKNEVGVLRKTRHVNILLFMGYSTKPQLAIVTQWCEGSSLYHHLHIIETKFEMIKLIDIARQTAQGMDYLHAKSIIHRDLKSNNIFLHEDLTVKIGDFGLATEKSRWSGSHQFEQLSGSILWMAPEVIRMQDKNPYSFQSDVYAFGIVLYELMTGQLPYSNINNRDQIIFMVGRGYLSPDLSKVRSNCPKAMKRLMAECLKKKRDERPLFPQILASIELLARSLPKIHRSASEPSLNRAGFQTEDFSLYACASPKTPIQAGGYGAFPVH

The first experiment concerns the target B-Raf (V600E)-kinase (Homo sapiens, UniProt P15056, V600E). In words: Kinase test B-Raf (V600E). The class given is biochemical. As to conditions: compound concentration 2 μM; 100% = no inhibition, 0% = total inhibition; read-out: % CTL (residual activity of the enzyme relative to DMSO control). The protocol: In a dilution series 10 μL of test substance solution are placed in a multiwell plate. The dilution series is selected so that generally a range of concentrations of 2 μM to 0.119 nM or 0.017 nM is covered. If necessary the initial concentration of 2 μM is changed to 50 μM, 10 μM or 0.4 μM or 0.2857 μM and further dilution is carried out accordingly. The final concentration of DMSO is 5%. 10 μL of the B-Raf (V600E)-kinase solution are pipetted in (containing 0.5 ng B-Raf (V600E)-kinase in 20 mM Tris-HCl pH 7.5, 0.1 mM EDTA, 0.1 mM EGTA, 0.286 mM sodium orthovanadate, 10% glycerol, 1 mg/mL bovine serum albumin, 1 mM dithiothreitol) and the mixture is incubated for 1 h at RT under with shaking The kinase reaction is started by the addition of 20 μL ATP solution [final concentration: 250 μM ATP, 30 mM Tris-HCl pH 7.5, 0.02% Brij, 0.2 mM sodium orthovanadate, 10 mM magnesium acetate, 0.1 mM EGTA, phosphatase cocktail (Sigma, # P2850, dilution recommended by the manufacturer), 0.1 mM EGTA] and 10 μL MEK1 solution [containing 50 ng biotinylated MEK1 (prepared from purified MEK1 according to standard procedure, e.g. with EZ-Link Sulpho-NHS-LC-Biotin reagent, Pierce, # 21335) and carried out for 60 min at RT with constant shaking. The reaction is stopped by the addition of 12 μL of a 100 mM EDTA solution and incubation is continued for a further 5 min. 55 μL of the reaction solution are transferred into a streptavidin-coated plate (e.g. Streptawell HighBond, Roche, #11989685001) and shaken gently for 1 h at RT, in order to bind biotinylated MEK1 to the plate. After elimination of the liquid the plate is washed five times with 200 μL of 1×PBS and 100 μL solution of primary antibody plus europium-labelled secondary antibody [Anti Phospho-MEK (Ser217/221), Cell Signaling, # 9121 and Eu-N1 labeled goat-anti-rabbit antibody, Perkin Elmer, #AD0105], the primary antibody is diluted 1:2000 and the secondary antibody is diluted to 0.4-0.5 μg/mL in Delfia Assay Buffer (Perkin Elmer, #1244-111). After 1 h shaking at RT the solution is poured away and washed five times with 200 μL Delfia Wash Buffer (Perkin Elmer, #4010-0010/#1244-114). After the addition of 200 μL Enhancement Solution (Perkin Elmer, #4001-0010/#1244-105) the mixture is shaken for 10 min at RT and then measured in a Wallac Victor using the program “Delfia Time Resolved Fluorescence (Europium)”. IC50 values are obtained from these dosage-activity curves using a software program (GraphPadPrizm).
A value of 100% indicates no inhibition while a value of 0% indicates total inhibition. The % CTL values denote the residual activity of the enzyme after the addition of the inhibitory compound in the solvent DMSO in relation to the enzyme activity in the solvent DMSO without the addition of a compound (control). The values were determined using the B-Raf(V600E)-kinase test described above.
Consider `Cc1ncc(C(=O)Nc2cc(C3=CCN(CC4CC4)CC3)c(C)c(C(F)(F)F)c2)cc1-n1cc(-c2cnn(C)c2C)nn1` [Example I-98], for which the remaining activity at 2 µM turned out to be 3%.

Take `CCC(C)N1CC=C(c2cc(NC(=O)c3cnc(C)c(-n4cc(-c5cnn(C)c5C)nn4)c3)cc(C(F)(F)F)c2C)CC1` (centres unmarked) [Example I-99]: the remaining activity at 2 µM came out at 1.9%. Same read-out and setting: for `Cc1ncc(C(=O)Nc2cc(C(F)(F)F)cc(Br)c2C)cc1-n1cc(-c2cnn(C)c2C)nn1` [Example I-100] the value was 3%; for `COc1c(CN(C)C)cc(C(F)(F)F)cc1NC(=O)c1cnc(C)c(-n2cc(-c3cnn(C)c3C)nn2)c1` [Example I-102], 4.6%; for `COc1c(CNC(C)C)cc(NC(=O)c2cnc(C)c(-n3cc(-c4cnn(C)c4C)nn3)c2)cc1C(F)(F)F` [Example I-103], 3.8%. On the same count and under the same terms, next, `COc1c(CN2CCCC2)cc(C(F)(F)F)cc1NC(=O)c1cnc(C)c(-n2cc(-c3cnn(C)c3C)nn2)c1` [Example I-104]: 2.1%. Regarding `Cc1ncc(C(=O)Nc2cc(CN(C)C)cc(C(F)(F)F)c2)cc1-n1cc(-c2cnn(C)c2C)nn1` [Example I-106], the remaining activity at 2 µM was found to be 1.3%. The same measure, in the same setting: for `Cc1ncc(C(=O)Nc2cc(CNC(C)C)cc(C(F)(F)F)c2)cc1-n1cc(-c2cnn(C)c2C)nn1` [Example I-107] the value was 1.6%; for `Cc1ncc(C(=O)Nc2cc(CNCC(C)C)cc(C(F)(F)F)c2)cc1-n1cc(-c2cnn(C)c2C)nn1` [Example I-108], 1.7%.

For `COCCN(C)Cc1cc(NC(=O)c2cnc(C)c(-n3cc(-c4cnn(C)c4C)nn3)c2)cc(C(F)(F)F)c1` [Example I-109], the remaining activity at 2 µM is 1.8%. On the same count and under the same terms, for `CNCc1cc(NC(=O)c2cnc(C)c(-n3cc(-c4cnn(C)c4C)nn3)c2)cc(C(F)(F)F)c1` [Example I-110] the value was 1.3%; for `Cc1ncc(C(=O)Nc2cc(CNC3CC3)cc(C(F)(F)F)c2)cc1-n1cc(-c2cnn(C)c2C)nn1` [Example I-111], 1.8%.

On to `COCCN(C)Cc1cc(C(F)(F)F)cc(NC(=O)c2cnc(C)c(-n3cc(-c4cnn(C)c4C)nn3)c2)c1OC` [Example I-112], for which the remaining activity at 2 µM was 2%.

As for `COc1c(CO)cc(NC(=O)c2cnc(C)c(-n3cc(-c4cnn(C)c4C)nn3)c2)cc1C(F)(F)F` [Example I-113], the remaining activity at 2 µM was found to be 2.9%.

For the compound `Cc1ncc(C(=O)Nc2cc(CO)c(Cl)c(C(F)(F)F)c2)cc1-n1cc(-c2cnn(C)c2C)nn1` [Example I-115], the remaining activity at 2 µM was determined as 1.9%. Same read-out and setting: for `COc1c(CN2CCCC2)cc(NC(=O)c2cnc(C)c(-n3cc(-c4cnn(C)c4C)nn3)c2)cc1C(F)(F)F` [Example I-116] the value was 3.1%; for `Cc1ncc(C(=O)Nc2cc(C(F)(F)F)cc(N3CCCOCC3)c2C)cc1-n1cc(-c2cnn(C)c2C)nn1` [Example I-118], 2.6%. For `Cc1ncc(C(=O)Nc2cc(C(F)(F)F)cc(N(C)CCN(C)C)c2C)cc1-n1cc(-c2cnn(C)c2C)nn1` [Example I-119], the remaining activity at 2 µM is 1.8%. On the same count and under the same terms, for `CCN1CCN(c2cc(C(F)(F)F)cc(NC(=O)c3cnc(C)c(-n4cc(-c5cnn(C)c5C)nn4)c3)c2C)CC1` [Example I-120] the value was 1.7%.

The experiment is the same for the next values; noted with them: measurement at 1.02 μM (**); 100% = no inhibition, 0% = total inhibition; read-out: % CTL (residual activity of the enzyme relative to DMSO control).
Take `Cc1ncc(C(=O)Nc2cc(C(F)(F)F)cc(N3CCCCC3)c2C)cc1-n1cc(-c2cnn(C)c2C)nn1` [Example I-114]: the remaining activity at 1.02 µM was 15.6%.

The same experiment, now with this note: measurement at 1.43 μM (***); 100% = no inhibition, 0% = total inhibition; read-out: % CTL (residual activity of the enzyme relative to DMSO control).
As for `Cc1ncc(C(=O)Nc2cc(C(F)(F)F)cc(N3CCN(C)CC3)c2C)cc1-n1cc(-c2cnn(C)c2C)nn1` [Example I-101], the remaining activity at 1.43 µM stood at 1.3%. Still for that read-out and setting: for `COc1c(CNCC(C)C)cc(C(F)(F)F)cc1NC(=O)c1cnc(C)c(-n2cc(-c3cnn(C)c3C)nn2)c1` [Example I-105] the value was 2%; for `Cc1ncc(C(=O)Nc2cc(C(F)(F)F)cc(N3CCCC3)c2C)cc1-n1cc(-c2cnn(C)c2C)nn1` [Example I-121], 2.3%.
